Assay results from patent publication US8269000B2, “Substituted pyrimidine and triazine compounds” (Gruenenthal GmbH, priority 2008, dated 2012).

Legend:
[1] = target: T1, rat B1R (Rattus norvegicus, UniProt P97583); assay: FLIPR Ca2+ functional study on bradykinin receptor 1 (rB1R CHO K1 cells); format: cell-based; conditions: for inhibition at 10 µM: CHO-K1, % inhibition rat B1R at 10 μM, read-out: % inh. (rat B1R) 10 μM
T1 construct: expressed in transfected cells; host or cells: CHO K1 cells
T1 sequence (P97583 1-337): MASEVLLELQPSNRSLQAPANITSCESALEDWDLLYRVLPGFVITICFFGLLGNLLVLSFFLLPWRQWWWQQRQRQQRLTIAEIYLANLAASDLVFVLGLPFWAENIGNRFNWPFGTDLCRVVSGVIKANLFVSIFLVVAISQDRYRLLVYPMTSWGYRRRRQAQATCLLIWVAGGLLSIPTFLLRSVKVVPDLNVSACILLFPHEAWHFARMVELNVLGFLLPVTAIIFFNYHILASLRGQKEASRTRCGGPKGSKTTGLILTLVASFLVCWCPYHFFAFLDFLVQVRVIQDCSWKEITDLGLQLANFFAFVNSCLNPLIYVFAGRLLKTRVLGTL
How it was run: (§1)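 Antagonism was calculated as % of maximal inhibition of the Ca2+ rise triggered by agonist at EC80 (Lys-Des-Arg9-bradykinin for hB1R, Des-Arg9-bradykinin for rB1R), added 10-20 min after test compound (10 μM or serial dilutions for IC50) to Fluo-4-loaded transfected CHO K1 cells on FLIPR. Duplicates or triplicates, ≥2 independent runs.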

[2] = target: T2, human B1R (Homo sapiens, UniProt P46663); assay: FLIPR Ca2+ functional study on bradykinin receptor 1 (hB1R CHO K1 cells); format: cell-based; conditions: % inhibition human B1R at 10 μM; for inhibition at 10 µM: read-out: % inh. (hum. B1R) 10 μM
T2 construct: expressed in transfected cells; host or cells: CHO K1 cells
T2 sequence (P46663 1-353): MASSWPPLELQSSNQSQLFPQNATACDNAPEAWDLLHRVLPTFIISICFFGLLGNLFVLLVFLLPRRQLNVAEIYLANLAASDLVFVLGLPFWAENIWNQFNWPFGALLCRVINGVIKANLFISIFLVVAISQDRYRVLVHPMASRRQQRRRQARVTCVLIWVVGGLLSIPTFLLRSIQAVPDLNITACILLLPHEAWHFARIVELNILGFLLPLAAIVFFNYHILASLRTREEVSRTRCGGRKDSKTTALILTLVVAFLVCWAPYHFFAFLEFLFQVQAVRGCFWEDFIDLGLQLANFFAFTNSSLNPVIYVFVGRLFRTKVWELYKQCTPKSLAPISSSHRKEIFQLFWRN
How it was run: as §1

Row | SMILES | inhibition at 10 µM [1] [%] | inhibition at 10 µM [2] [%] | % inh. (rat B1R) 10 μM ([1]; % inhibition rat B1R at 10 μM) [%] | % inh. (hum. B1R) 10 μM [2] [%]
1 | COc1cc(C)c(S(=O)(=O)N(CCCc2cncc(N3CCC4(CCN(c5ccncc5)CC4)CC3)n2)C2CC2)c(C)c1 [Example I-006, N-cyclopropyl-4-methoxy-2,6-dimethyl-N-[3-[6-(9-pyridin-4-yl-3,9-diazaspiro[5.5]undecan-3-yl)-pyrazin-2-yl]-propyl]-benzenesulfonic acid amide] | 97 | 94 | – | –
2 | COc1cc(C)c(S(=O)(=O)N(C)CCOc2nccc(N3CCN(C4CCN(C)CC4)CC3)n2)c(C)c1 [G_CC-001, 4-methoxy-N,2,6-trimethyl-N-[2-[[4-[4-(1-methyl-4-piperidinyl)-1-piperazinyl]-2-pyrimidinyl]oxy]ethyl]benzenesulfonamide] | 97 | 98 | – | –
3 | COc1cc(C)c(S(=O)(=O)N2CCCCC2COc2nccc(N3CCN(C4CCN(C)CC4)CC3)n2)c(C)c1 (stereo not shown) [G_CC-002, 2-[[1-(4-methoxy-2,6-dimethylphenyl)sulfonyl-2-piperidinyl]methoxy]-4-[4-(1-methyl-4-piperidinyl)-1-piperazinyl]pyrimidine] | 101 | 99 | – | –
4 | COc1cc(C)c(S(=O)(=O)N2CCCCC2COc2nccc(N3CCC(CCN4CCCC4)CC3)n2)c(C)c1 (stereo not shown) [G_CC-003, 2-[[1-(4-methoxy-2,6-dimethylphenyl)sulfonyl-2-piperidinyl]methoxy]-4-[4-(2-1-pyrrolidinylethyl)-1-piperidinyl]pyrimidine] | 102 | 100 | – | –
5 | COc1cc(C)c(S(=O)(=O)N2CCCCC2COc2nccc(N(C)CCN3CCC(c4ccccc4)(N(C)C)CC3)n2)c(C)c1 (stereo not shown) [G_CC-004, N-[2-(4-dimethylamino-4-phenyl-1-piperidinyl)ethyl]-2-[[1-(4-methoxy-2,6-dimethylphenyl)sulfonyl-2-piperidinyl]methoxy]-N-methyl-4-pyrimidineamine] | 100 | 100 | – | –
6 | COc1cc(C)c(S(=O)(=O)N2CCCCC2COc2nccc(N3CCC(N4CCN(C)CC4)CC3)n2)c(C)c1 (stereo not shown) [G_CC-011, 2-[[1-(4-methoxy-2,6-dimethylphenyl)sulfonyl-2-piperidinyl]methoxy]-4-[4-(4-methyl-1-piperazinyl)-1-piperidinyl]pyrimidine] | 96 | 91 | – | –
7 | COc1cc(C)c(S(=O)(=O)N2CCCCC2COc2nccc(N3CCN(CC4CCN(C)CC4)CC3)n2)c(C)c1 (stereo not shown) [G_CC-014, 2-[[1-(4-methoxy-2,6-dimethylphenyl)sulfonyl-2-piperidinyl]methoxy]-4-[4-[(1-methyl-4-piperidinyl)methyl]-1-piperazinyl]pyrimidine] | 105 | 94 | – | –
8 | COc1cc(C)c(S(=O)(=O)N2CCC[C@H]2COc2nccc(N3CCC(CCN4CCCC4)CC3)n2)c(C)c1 [G_CC-016, 2-[[(2S)-1-(4-methoxy-2,6-dimethylphenyl)sulfonyl-2-pyrrolidinyl]methoxy]-4-[4-(2-1-pyrrolidinylethyl)-1-piperidinyl]pyrimidine] | 100 | 96 | – | –
9 | COc1cc(C)c(S(=O)(=O)N2CCCCC2COc2nccc(N3CCC(CCN4CCCCC4)CC3)n2)c(C)c1 (stereo not shown) [G_CC-026] | – | – | 100 | 97
10 | COc1cc(C)c(S(=O)(=O)N2CCC[C@H]2COc2nccc(N3CCN(C4CCN(C)CC4)CC3)n2)c(C)c1 [G_CC-036, 2-[[(2S)-1-(4-methoxy-2,6-dimethylphenyl)sulfonyl-2-pyrrolidinyl]methoxy]-4-[4-(1-methyl-4-piperidinyl)-1-piperazinyl]pyrimidine] | 102 | 75 | – | –
11 | COc1cc(C)c(S(=O)(=O)N2CCCC(Oc3nccc(N4CCC5(CCN(c6ccncc6)CC5)CC4)n3)C2)c(C)c1 (stereo not shown) [G_CC-041, 9-[2-[[1-(4-methoxy-2,6-dimethylphenyl)sulfonyl-3-piperidinyl]oxy]-4-pyrimidinyl]-3-(4-pyridyl)-3,9-diazaspiro[5.5]undecane] | 101 | 96 | – | –
12 | COc1cc(C)c(S(=O)(=O)N(C)CCOc2nccc(N3CCC4(CCN(c5ccncc5)CC4)CC3)n2)c(C)c1 [G_CC-047, 4-methoxy-N,2,6-trimethyl-N-[2-[[4-[3-(4-pyridyl)-3,9-diazaspiro[5.5]undecan-9-yl]-2-pyrimidinyl]oxy]ethyl]benzenesulfonamide] | 99 | 100 | – | –

Now from value to compound:

Row | inhibition at 10 µM [1] [%] | inhibition at 10 µM [2] [%] | % inh. (rat B1R) 10 μM ([1]; % inhibition rat B1R at 10 μM) [%] | % inh. (hum. B1R) 10 μM [2] [%] | SMILES
13 | 102 | 100 | – | – | COc1cc(C)c(S(=O)(=O)N2CCCCC2COc2nccc(N3CCN(c4ccncc4)CC3)n2)c(C)c1 (stereo not shown) [G_CC-013, 2-[[1-(4-methoxy-2,6-dimethylphenyl)sulfonyl-2-piperidinyl]methoxy]-4-[4-(4-pyridyl)-1-piperazinyl]pyrimidine]
14 | 104 | 100 | – | – | COc1cc(C)c(S(=O)(=O)N2CCC[C@H]2COc2nccc(N3CCN(c4ccncc4)CC3)n2)c(C)c1 [G_CC-019, 2-[[(2S)-1-(4-methoxy-2,6-dimethylphenyl)sulfonyl-2-pyrrolidinyl]methoxy]-4-[4-(4-pyridyl)-1-piperazinyl]pyrimidine]
15 | 105 | 36 | – | – | COc1cc(C)c(S(=O)(=O)N2CCC[C@H]2COc2nccc(N3CCC(O)(c4cccs4)CC3)n2)c(C)c1 [G_CC-021, 1-[2-[[(2S)-1-(4-methoxy-2,6-dimethylphenyl)sulfonyl-2-pyrrolidinyl]methoxy]-4-pyrimidinyl]-4-(2-thienyl)-4-piperidinol]
16 | 105 | 86 | – | – | COc1cc(C)c(S(=O)(=O)N2CCC[C@H]2COc2nccc(N3CCC4(CCN(Cc5ccccc5)C4)C3)n2)c(C)c1 (stereo partly drawn) [G_CC-032, 3-benzyl-7-[2-[[(2S)-1-(4-methoxy-2,6-dimethylphenyl)sulfonyl-2-pyrrolidinyl]methoxy]-4-pyrimidinyl]-3,7-diazaspiro[4.4]nonane]
17 | 99 | -1 | – | – | COc1cc(C)c(S(=O)(=O)N2CCC[C@H]2COc2nccc(N3CCC4(CC3)C(=O)NCN4c3ccccc3)n2)c(C)c1 [G_CC-035, 8-[2-[[(2S)-1-(4-methoxy-2,6-dimethylphenyl)sulfonyl-2-pyrrolidinyl]methoxy]-4-pyrimidinyl]-4-phenyl-2,4,8-triazaspiro[4.5]decan-1-one]
18 | 99 | 58 | – | – | COc1cc(C)c(S(=O)(=O)N2CCCCC2COc2nccc(N3CCC4(CCN(Cc5ccc(F)cc5)C4=O)CC3)n2)c(C)c1 (stereo not shown) [G_CC-039, 3-[(4-fluorophenyl)methyl]-8-[2-[[1-(4-methoxy-2,6-dimethylphenyl)sulfonyl-2-piperidinyl]methoxy]-4-pyrimidinyl]-3,8-diazaspiro[4.5]decan-4-one]
19 | 99 | 57 | – | – | COc1cc(C)c(S(=O)(=O)N2CCCCC2COc2nccc(N3CCC4(CCN(Cc5ccccc5)C4=O)CC3)n2)c(C)c1 (stereo not shown) [G_CC-040, 3-benzyl-8-[2-[[1-(4-methoxy-2,6-dimethylphenyl)sulfonyl-2-piperidinyl]methoxy]-4-pyrimidinyl]-3,8-diazaspiro[4.5]decan-4-one]
20 | 96 | 28 | – | – | COc1cc(C)c(S(=O)(=O)N2CCC[C@H]2COc2nccc(N3CCC4(CC3)CCN(c3ccc(F)cc3)C4=O)n2)c(C)c1 [G_CC-048, 3-(4-fluorophenyl)-8-[2-[[(2S)-1-(4-methoxy-2,6-dimethylphenyl)sulfonyl-2-pyrrolidinyl]methoxy]-4-pyrimidinyl]-3,8-diazaspiro[4.5]decan-4-one]
